Test results from patent US20070015733A1, “Aryl Phosphate Derivatives of d4T having Activity Against Resistant HIV Strains” (Parker Hughes Institute, priority 1998, published 2007).
Where two headings read alike, the source gives them in different places.

Experiments:
[1] = system: HIV-1 HTLVIIIB; assay: microbe, parasite or virus in culture
Experimental: In vitro assays of anti-HIV-1 activity. Normal human peripheral blood mononuclear cells (PBMNC) from HIV-negative donors were cultured 72 hours in RPMI 1640 supplemented with 20% (v/v) heat-inactivated fetal bovine serum (FBS), 3% interleukin-2, 2 mM L-glutamine, 25 mM HEPES, 2 g/L NaHCO3, […], and […] prior to exposure to HIV-1 at a multiplicity of infection (MOI) of 0.1 during a 1 hour adsorption period at 37° C. in a humidified 5% CO2 atmosphere. Subsequently, cells were cultured in 96-well microtiter plates ([…]; 2×10^6 cells/mL) in the presence of various concentrations of d4T phosphoramidates and aliquots of culture supernatants were removed from the wells on the 7th day after infection for p24 antigen assays, as previously described (Uckun et al., 1998, Antimicrobial Agents and Chem., 42(2):383-388). The applied p24 enzyme immunoassay (EIA) was the unmodified kinetic assay commercially available from Coulter Corporation/Immunotech, Inc. (Westbrooke, Me.), which utilizes a murine mAb to HIV core protein coated onto microwell strips to which the antigen present in the test culture supernatant samples binds. Percent viral inhibition was calculated by comparing the p24 values from untreated infected cells (i.e., virus controls).
The anti-HIV activity of the compounds was examined by evaluating their ability to inhibit HIV replication in peripheral blood mononuclear cells using previously described procedures (Uckun et al., 1998, Antimicrobial Agents and Chem., 42(2):383-388). Percent inhibition of viral replication was calculated by comparing the p24 antigen levels from the test substance-treated infected cells with those from vehicle-treated infected cells.
Antiviral susceptibility assays. Phenotypic drug susceptibility studies of HIV-1 isolates and strains were performed by measuring the production of the p24 gag protein in peripheral blood mononuclear cells (PBMC) from seronegative healthy volunteers in the presence of increasing concentrations of the anti-HIV agent using the quantitative Coulter HIV-1 p24 antigen ezyme immunoassay (EIA) and HIV-1 p24 Antigen Kinetic Standard (Beckman Coulter), as previously described (Uckun, 1998, Antimicrobial Agents and Chemotherapy 37(4): 835-38). Informed consent was obtained from the blood donors according to DHHS guidelines using consent forms approved by the Institutional Review Board. In brief, PBMC were cultured for 72 h in RPMI 1640 medium (Gibco) supplemented with 20% (vol/vol) heat-inactivated fetal bovine serum, 5% human interleukin-2 (Zeptometrix), 2 mM L-glutamine, 25 mM HEPES, 2 g/L NaHCO3, 100 U/ml penicillin/streptomycin (Gibco), 50 μg/ml gentamicin (Gibco), and 5 μg/ml phytohemagglutinin-P (PHA-P) (Sigma) for 24-72 hours prior to exposure to HIV at a multiplicity of infection of 0.001-0.1 during a 1-h adsorbtion period at 37±1° C. in a humidified 5-7% CO2 atmosphere. Subsequently, cells were cultured in 96-well microtiter plates (100 μl/well; 2×10^6 cells/ml, triplicate wells) in the presence of the anti-HIV agents at 6-7 different concentrations ranging from 0.0001 μM to 100 μM, and 25 μL aliquots of culture supernatants were removed from the wells on day 6 after infection for p24 EIA, as previously described (Uckun, 1998, Antimicrobial Agents and Chemotherapy, 37(4):835-38). Controls included uninfected and untreated cells (background control) and infected but untreated (virus control) cells. The p24 EIA utilizes a murine monoclonal antibody to HIV core protein used to coat microwell strips to which the antigen present in the test culture supernatant samples binds. Percent inhibition of viral replication was calculated by comparing the p24 values from the test substance-treated infected cells with p24 values from untreated infected cells (i.e., virus controls). The IC50 values were determined using the Statview statistics program (SAS Institute, Inc.).

[2] = system: HIV-1 A17 (Y181C mutant, NNRTI-resistant); assay: p24 antigen assay, A17 strain in PBMC; format: cell-based; conditions: Human immunodeficiency virus 1, PBMC
Source text: In vitro assays of anti-HIV-1 activity.
Viruses. 20 primary clinical isolates with genotypic and/or phenotypic NRTI-resistance (isolated in the laboratory of D. Richman) and 10 clinical isolates with phenotypic stavudine (d4T) resistance (obtained through the AIDS Research and Reference Reagent Program, NIAID) were used in the current study. The HIV-1 strains HTLVIIIB (wildtype RT, NRTI-sensitive, NNRTI-sensitive), A17 (Y181 C mutant, NNRTI-resistant), A17-variant (Y181C+K103N mutant, NNRTI-resistant), and RT-MDR (M41 L, V106N, T215Y; NRTI-resistant, NNRTI-resistant) were also obtained from the AIDS Research and Reference Reagent Program, NIAID.
Antiviral susceptibility assays.

[3] = system: HIV-1 (HTLVIIIB) in TK-deficient CEM T-cells; assay: Inhibition of HIV-1 replication in TK-deficient CEM T-cells (p24 / RT activity); format: cell-based
Experimental: Percent inhibition of viral replication was calculated by comparing the p24 and RT activity values from the test substance-treated infected cells with those from untreated infected cells. In parallel, the cytotoxicity of the compounds was examined using a microculture tetrazolium assay (MTA) of cell proliferation, as described.in the Zarling, Enrice, and Uckun articles Supra).
Cellular Assays of Anti-HIV Activity and Cytotoxicity. […] Percent viral inhibition was calculated by comparing the RT activity values from the test substance-treated infected cells with RT values from untreated infected cells (i.e., virus controls).

[4] = Human immunodeficiency virus 1, PBMC
[5] = Human immunodeficiency virus 1, read-out: IC50 HTLVIIIB
[6] = Human immunodeficiency virus 1, CCRF-CEM, TK-deficient CEM cells, read-out: IC50 value for inhibition of RT activity
[7] = Human immunodeficiency virus 1, CCRF-CEM, TK-deficient CEM cells, read-out: IC50 value for inhibition of p24 production
[8] = Human immunodeficiency virus 1, T-cell, TK-deficient CEM T-cells, Table 5, read-out: CEM IC50 [RT]
[9] = Human immunodeficiency virus 1, T-cell, TK-deficient CEM, unit not printed in Table 2 (0.556 = 556 nM), read-out: IC50 [p24]
[10] = Human immunodeficiency virus 1, T-cell, TK-deficient CEM, unit not printed in Table 2 (2.355 = 2355 nM), read-out: IC50 [RT]
[11] = Human immunodeficiency virus 1, PBMC, in Homo sapiens, read-out: IC50, compound 1c compared to zidovudine
[12] = Human immunodeficiency virus 1, PBMC, in Homo sapiens, read-out: IC90, compound 1c compared to zidovudine

Structure (SMILES)	SI(CC50/IC50) ([1]; HTLVIIIB, PBMC)	IC50 [1, 4] [nM]	IC90 [1, 4] [nM]	IC50 [2] [nM]	SI(CC50/IC50) [1]	IC50 [1, 5] [nM]	IC50 [3, 6] [nM]	IC50 [3, 7] [nM]	IC50 [3, 8] [nM]	IC50 [3, 9] [nM]	IC50 [3, 10] [nM]	IC50 ([3]; Human immunodeficiency virus 1, T-cell, read-out: CEM IC50 [RT], TK-deficient CEM T-cells, Table 4) [nM]	IC50 [1, 11] [nM]	IC90 [1, 12] [nM]	IC50 ([2]; read-out: IC50 A17) [nM]
Cc1ccnc2c1NC(=O)c1cccnc1N2C1CC1 [nevirapine]	213	24 ± 7	1100 ± 478	47000 ± 7000	–	–	–	–	–	–	–	–	–	–	–
Cc1cn([C@H]2C=C[C@@H](CO)O2)c(=O)[nH]c1=O [d4T, 2′,3′-didehydro-2′,3′-dideoxythymidine]	–	23 ± 8	1470 ± 614	–	196	18	2360	556	2400	556	2360	2340	–	–	–
Cc1cn([C@H]2C[C@H](N=[N+]=[N-])[C@@H](CO)O2)c(=O)[nH]c1=O [AZT, 3′-azido-3′-deoxythymidine]	–	3 ± 1	93 ± 34	–	31,867	4 ± 1	200	–	200	–	–	–	3 ± 1	93 ± 34	0.055
COC(=O)C(C)NP(=O)(OC[C@@H]1C=C[C@H](n2cc(C)c(=O)[nH]c2=O)O1)Oc1ccc(Br)cc1 (some centres unmarked) [Compound 1c, d4T-5′-[p-bromo-phenylmethoxyalaninyl phosphate]]	–	1	52 ± 24	< 1	–	1	57	44	60	44	57	–	1	45 ± 28	36 ± 21
